{"source": "paper PMC6440482", "about": "(European journal of pharmacology, 2018)", "key": {"mDAT": {"target": "mDAT (Mus musculus, UniProt Q61327)", "sequence (Q61327 whole entry)": "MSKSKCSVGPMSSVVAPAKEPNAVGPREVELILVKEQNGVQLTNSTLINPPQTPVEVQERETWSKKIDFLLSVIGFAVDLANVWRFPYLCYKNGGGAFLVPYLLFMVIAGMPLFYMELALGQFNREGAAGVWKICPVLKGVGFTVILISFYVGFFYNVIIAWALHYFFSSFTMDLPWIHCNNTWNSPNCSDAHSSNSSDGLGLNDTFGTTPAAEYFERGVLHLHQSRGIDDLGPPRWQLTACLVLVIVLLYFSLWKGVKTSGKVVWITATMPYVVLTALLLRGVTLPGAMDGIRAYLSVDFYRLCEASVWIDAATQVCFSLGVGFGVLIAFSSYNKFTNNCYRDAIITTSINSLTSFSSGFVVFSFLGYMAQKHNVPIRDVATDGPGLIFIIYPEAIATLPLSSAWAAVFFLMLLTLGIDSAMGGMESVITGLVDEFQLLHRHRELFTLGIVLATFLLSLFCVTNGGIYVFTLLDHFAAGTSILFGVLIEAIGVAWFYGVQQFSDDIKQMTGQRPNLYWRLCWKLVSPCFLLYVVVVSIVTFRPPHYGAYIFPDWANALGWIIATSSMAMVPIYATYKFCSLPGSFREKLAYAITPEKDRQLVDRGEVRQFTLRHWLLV", "assay": "[3H]MPP+ uptake inhibition in transiently transfected mDAT-HEK cells", "assay_type": "cell-based"}, "mNET": {"target": "mNET (Mus musculus, UniProt O55192)", "sequence (O55192 whole entry)": "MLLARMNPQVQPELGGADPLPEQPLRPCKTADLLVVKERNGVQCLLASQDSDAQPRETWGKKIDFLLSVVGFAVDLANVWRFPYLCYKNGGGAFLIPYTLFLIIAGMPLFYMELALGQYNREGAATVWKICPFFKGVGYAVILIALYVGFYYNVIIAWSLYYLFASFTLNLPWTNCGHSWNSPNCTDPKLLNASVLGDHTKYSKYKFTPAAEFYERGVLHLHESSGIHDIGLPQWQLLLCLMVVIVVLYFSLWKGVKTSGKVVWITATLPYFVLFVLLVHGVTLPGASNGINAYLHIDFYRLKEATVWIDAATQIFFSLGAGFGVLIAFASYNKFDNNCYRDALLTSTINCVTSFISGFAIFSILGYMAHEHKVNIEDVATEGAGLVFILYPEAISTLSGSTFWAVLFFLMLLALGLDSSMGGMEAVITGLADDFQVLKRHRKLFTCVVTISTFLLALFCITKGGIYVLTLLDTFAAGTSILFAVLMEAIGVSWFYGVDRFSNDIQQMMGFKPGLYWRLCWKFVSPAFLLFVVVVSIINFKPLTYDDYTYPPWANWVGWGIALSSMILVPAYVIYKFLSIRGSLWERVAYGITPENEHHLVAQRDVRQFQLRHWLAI", "assay": "[3H]MPP+ uptake inhibition in transiently transfected mNET-HEK cells", "assay_type": "cell-based"}, "mSERT": {"target": "mSERT (Mus musculus, UniProt Q60857)", "sequence (Q60857 whole entry)": "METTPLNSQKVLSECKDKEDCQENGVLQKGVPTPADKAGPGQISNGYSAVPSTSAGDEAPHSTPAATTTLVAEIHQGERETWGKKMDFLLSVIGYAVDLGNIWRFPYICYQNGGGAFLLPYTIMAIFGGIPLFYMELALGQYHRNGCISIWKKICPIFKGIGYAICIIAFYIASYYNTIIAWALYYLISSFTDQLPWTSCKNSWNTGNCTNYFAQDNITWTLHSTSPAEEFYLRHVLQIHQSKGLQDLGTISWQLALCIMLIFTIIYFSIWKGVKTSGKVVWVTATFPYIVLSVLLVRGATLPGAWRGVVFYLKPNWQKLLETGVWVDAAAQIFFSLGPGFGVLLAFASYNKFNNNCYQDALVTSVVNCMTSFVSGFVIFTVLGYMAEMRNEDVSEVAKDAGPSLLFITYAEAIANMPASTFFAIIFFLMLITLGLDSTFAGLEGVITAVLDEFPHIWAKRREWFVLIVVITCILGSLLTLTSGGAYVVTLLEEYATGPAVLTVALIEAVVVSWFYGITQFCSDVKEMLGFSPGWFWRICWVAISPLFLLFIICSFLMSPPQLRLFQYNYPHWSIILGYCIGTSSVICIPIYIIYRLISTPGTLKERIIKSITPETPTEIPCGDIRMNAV", "assay": "[3H]5-HT uptake inhibition in transiently transfected mSERT-HEK cells", "assay_type": "cell-based"}, "hOCT2": {"target": "T1, hOCT2 (Homo sapiens, UniProt O15244)", "T1 sequence (O15244 1-555)": "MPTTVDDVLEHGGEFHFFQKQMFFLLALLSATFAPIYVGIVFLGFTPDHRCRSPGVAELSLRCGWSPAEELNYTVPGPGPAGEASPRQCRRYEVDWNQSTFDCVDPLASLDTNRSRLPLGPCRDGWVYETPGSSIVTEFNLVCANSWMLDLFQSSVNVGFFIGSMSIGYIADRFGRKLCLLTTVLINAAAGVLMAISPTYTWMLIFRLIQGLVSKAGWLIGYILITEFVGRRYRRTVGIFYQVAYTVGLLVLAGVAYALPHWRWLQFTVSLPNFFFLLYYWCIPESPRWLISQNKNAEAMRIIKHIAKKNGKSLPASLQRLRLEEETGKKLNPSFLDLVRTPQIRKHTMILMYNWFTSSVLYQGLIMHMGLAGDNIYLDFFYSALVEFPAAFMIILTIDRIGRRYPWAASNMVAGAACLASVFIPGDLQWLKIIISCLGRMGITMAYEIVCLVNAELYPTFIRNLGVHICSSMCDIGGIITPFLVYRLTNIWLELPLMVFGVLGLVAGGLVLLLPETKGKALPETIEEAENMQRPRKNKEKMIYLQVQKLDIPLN", "assay": "[3H]MPP+ uptake competition in stable hOCT2-HEK cells", "assay_type": "cell-based", "details": "10 min room temperature"}, "hOCT3": {"target": "T2, hOCT3 (Homo sapiens, UniProt O75751)", "T2 sequence (O75751 1-556)": "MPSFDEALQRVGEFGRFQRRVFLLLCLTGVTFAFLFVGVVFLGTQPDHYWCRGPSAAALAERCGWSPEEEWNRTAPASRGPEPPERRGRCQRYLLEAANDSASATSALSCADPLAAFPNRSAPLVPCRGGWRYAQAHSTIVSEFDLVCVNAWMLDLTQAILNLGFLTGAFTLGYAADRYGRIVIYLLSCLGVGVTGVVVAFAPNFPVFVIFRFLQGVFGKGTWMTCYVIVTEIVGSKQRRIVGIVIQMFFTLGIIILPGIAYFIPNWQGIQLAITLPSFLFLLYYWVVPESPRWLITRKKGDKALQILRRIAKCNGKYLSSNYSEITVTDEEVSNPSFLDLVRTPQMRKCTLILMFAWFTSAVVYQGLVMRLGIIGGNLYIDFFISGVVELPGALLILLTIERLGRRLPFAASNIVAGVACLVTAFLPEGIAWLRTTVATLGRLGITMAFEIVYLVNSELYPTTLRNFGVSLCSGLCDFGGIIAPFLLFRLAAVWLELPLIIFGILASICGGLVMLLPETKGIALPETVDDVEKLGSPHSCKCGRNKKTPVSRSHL", "assay": "[3H]MPP+ uptake competition in stable hOCT3-HEK cells", "assay_type": "cell-based", "details": "10 min room temperature"}, "hPMAT": {"target": "T3, hPMAT (Homo sapiens, UniProt Q7RTT9)", "T3 sequence (Q7RTT9 1-530)": "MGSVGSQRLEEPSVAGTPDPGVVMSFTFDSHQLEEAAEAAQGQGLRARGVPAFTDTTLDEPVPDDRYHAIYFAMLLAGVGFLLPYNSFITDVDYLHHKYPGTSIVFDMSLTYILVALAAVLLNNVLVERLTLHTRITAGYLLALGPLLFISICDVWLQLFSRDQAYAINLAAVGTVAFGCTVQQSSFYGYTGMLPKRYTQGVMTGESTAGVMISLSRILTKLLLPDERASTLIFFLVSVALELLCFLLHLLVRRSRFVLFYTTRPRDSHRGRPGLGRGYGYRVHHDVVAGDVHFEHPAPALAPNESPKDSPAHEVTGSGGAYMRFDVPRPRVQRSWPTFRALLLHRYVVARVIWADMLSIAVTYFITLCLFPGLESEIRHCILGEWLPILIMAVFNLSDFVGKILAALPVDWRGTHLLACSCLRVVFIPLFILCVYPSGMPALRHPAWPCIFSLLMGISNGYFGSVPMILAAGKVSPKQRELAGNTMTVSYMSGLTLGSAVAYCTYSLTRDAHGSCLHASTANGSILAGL", "assay": "[3H]MPP+ uptake competition in stable hPMAT-HEK cells", "assay_type": "cell-based"}, "DAT": {"target": "DAT (Mus musculus, UniProt Q61327)", "sequence (Q61327 whole entry)": "as the sequence (Q61327 whole entry) above", "assay": "[3H]WIN 35428 binding displacement in mouse striatum homogenate"}, "[1]": {"details": "read-out: DAT [3H]WIN 35428 IC50, mouse striatum homogenate, 4 nM [3H]WIN 35428, 60 min"}, "[2]": {"details": "read-out: hOCT2-HEK IC50, 10 nM [3H]MPP+ uptake"}, "[3]": {"details": "read-out: hOCT3-HEK IC50, 10 nM [3H]MPP+ uptake"}, "[4]": {"details": "read-out: hPMAT-HEK IC50, 10 nM [3H]MPP+ uptake, 10 min room temperature"}}, "note": "Values joined by “and” are separate entries in the source; they are usually repeats but may differ in a detail not shown here. Identical values can stand only once. Like-named read-outs stand apart in the source and are kept apart here."}
{"smiles": "COC(=O)[C@H]1[C@@H](OC(=O)c2ccccc2)C[C@@H]2CC[C@H]1N2C", "note": "[Cocaine]", "values": [{"measurement": "IC50", "setting": "mDAT; mDAT-HEK IC50, 20 nM [3H]MPP+ uptake, 3 min", "result": 0.18, "unit": "µM"}, {"measurement": "IC50", "setting": "mNET; mNET-HEK IC50, 20 nM [3H]MPP+ uptake, 3 min", "result": "1.2 µM and 1.18 µM"}, {"measurement": "IC50", "setting": "mSERT; mSERT-HEK IC50, 100 nM [3H]5-HT uptake, 1 min", "result": "0.5 µM and 0.51 µM"}]}
{"smiles": "C[C@]12C[C@H](O)[C@H]3[C@@H](CCC4=CC(=O)CC[C@@]43C)[C@@H]1CC[C@@H]2C(=O)CO", "note": "[Corticosterone]", "values": [{"measurement": "IC50", "setting": "mDAT", "result": "364 µM and 365 µM"}, {"measurement": "IC50", "setting": "mNET", "result": 840, "unit": "µM"}, {"measurement": "IC50", "setting": "mSERT", "result": 445, "unit": "µM"}, {"measurement": "IC50", "setting": "hOCT2; hOCT2-HEK IC50, 10 nM [3H]MPP+ uptake", "result": 79.6, "unit": "µM"}, {"measurement": "IC50", "setting": "hOCT3; hOCT3-HEK IC50, 10 nM [3H]MPP+ uptake", "result": "0.6 µM and 0.62 µM"}, {"measurement": "IC50", "setting": "hPMAT", "result": 1060, "unit": "µM"}]}
{"smiles": "CCN1C(=Cc2ccc3ccccc3[n+]2CC)C=Cc2ccccc21", "note": "[Decynium 22, 1,1’-diethyl-2,2’-cyanine]", "values": [{"measurement": "IC50", "setting": "DAT; [1]", "result": 10.8, "unit": "µM"}, {"measurement": "IC50", "setting": "mDAT; read-out: mDAT-HEK IC50, 20 nM [3H]MPP+ uptake, 3 min", "result": 12.9, "unit": "µM"}, {"measurement": "IC50", "setting": "mNET; read-out: mNET-HEK IC50, 20 nM [3H]MPP+ uptake, 3 min", "result": 35, "unit": "µM"}, {"measurement": "IC50", "setting": "mSERT; read-out: mSERT-HEK IC50, 100 nM [3H]5-HT uptake, 1 min", "result": 7.9, "unit": "µM"}, {"measurement": "IC50", "setting": "mSERT; read-out: mSERT-HEK IC50, 100 nM [3H]5-HT uptake, 1 min, listed as D22", "result": 8, "unit": "µM"}, {"measurement": "IC50", "setting": "hOCT2; [2]", "result": 10, "unit": "µM"}, {"measurement": "IC50", "setting": "hOCT3; [3]", "result": 0.2, "unit": "µM"}, {"measurement": "IC50", "setting": "hPMAT; [4]", "result": 1.1, "unit": "µM"}]}
{"smiles": "NCCc1ccc(O)c(O)c1", "note": "[Dopamine]", "values": [{"measurement": "IC50", "setting": "DAT", "result": 99.8, "unit": "µM"}]}
{"smiles": "C[n+]1ccc(-c2ccccc2)cc1", "note": "[MPP^+, 1-methyl-4-phenylpyridinium]", "values": [{"measurement": "IC50", "setting": "hOCT2; [2]", "result": 110, "unit": "µM"}, {"measurement": "IC50", "setting": "hOCT3; [3]", "result": 91, "unit": "µM"}, {"measurement": "IC50", "setting": "hPMAT; [4]", "result": 1040, "unit": "µM"}]}
{"smiles": "COC(=O)[C@H]1[C@@H](c2ccc(F)cc2)C[C@@H]2CC[C@H]1N2C", "note": "[WIN 35428]", "values": [{"measurement": "IC50", "setting": "DAT; [1]", "result": 0.06, "unit": "µM"}]}
